Reference: PMC9851200, “Multiparameter phenotypic screening for endogenous TFEB and TFE3 translocation identifies novel chemical series modulating lysosome function” (Autophagy, 2022)

Tests used:
Format in all cases: binding
[1] = biological target: kinases (KINOMEscan panel) (Homo sapiens, UniProt P31749); details: kinase AKT1; NEW KINOMEscan
[2] = biological target: kinases (KINOMEscan panel) (Homo sapiens, UniProt Q06187); details: kinase BTK; NEW KINOMEscan
[3] = biological target: kinases (KINOMEscan panel) (Homo sapiens, UniProt Q13177); details: PAK2; NEW KINOMEscan
[4] = biological target: kinases (KINOMEscan panel) (Homo sapiens, UniProt Q7KZI7); details: MARK2; NEW KINOMEscan
[5] = biological target: kinases (KINOMEscan panel) (Homo sapiens, UniProt Q8IVW4); details: kinase CDKL3; NEW KINOMEscan
[6] = biological target: T1, kinases (KINOMEscan panel) (Homo sapiens, UniProt Q96PN8); details: kinase TSSK3; NEW KINOMEscan
T1 sequence (Q96PN8 1-268): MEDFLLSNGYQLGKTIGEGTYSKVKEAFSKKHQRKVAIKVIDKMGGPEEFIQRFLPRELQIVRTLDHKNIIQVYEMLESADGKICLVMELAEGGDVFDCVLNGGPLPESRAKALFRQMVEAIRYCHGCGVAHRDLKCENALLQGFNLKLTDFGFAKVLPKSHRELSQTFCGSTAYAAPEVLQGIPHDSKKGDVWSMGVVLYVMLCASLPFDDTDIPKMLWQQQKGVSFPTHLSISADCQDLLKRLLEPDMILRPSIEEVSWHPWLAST

[7] = biological target: T2, kinases (KINOMEscan panel) (Homo sapiens, UniProt Q9H2K8); details: kinase TAOK3; NEW KINOMEscan
T2 sequence (Q9H2K8 1-898): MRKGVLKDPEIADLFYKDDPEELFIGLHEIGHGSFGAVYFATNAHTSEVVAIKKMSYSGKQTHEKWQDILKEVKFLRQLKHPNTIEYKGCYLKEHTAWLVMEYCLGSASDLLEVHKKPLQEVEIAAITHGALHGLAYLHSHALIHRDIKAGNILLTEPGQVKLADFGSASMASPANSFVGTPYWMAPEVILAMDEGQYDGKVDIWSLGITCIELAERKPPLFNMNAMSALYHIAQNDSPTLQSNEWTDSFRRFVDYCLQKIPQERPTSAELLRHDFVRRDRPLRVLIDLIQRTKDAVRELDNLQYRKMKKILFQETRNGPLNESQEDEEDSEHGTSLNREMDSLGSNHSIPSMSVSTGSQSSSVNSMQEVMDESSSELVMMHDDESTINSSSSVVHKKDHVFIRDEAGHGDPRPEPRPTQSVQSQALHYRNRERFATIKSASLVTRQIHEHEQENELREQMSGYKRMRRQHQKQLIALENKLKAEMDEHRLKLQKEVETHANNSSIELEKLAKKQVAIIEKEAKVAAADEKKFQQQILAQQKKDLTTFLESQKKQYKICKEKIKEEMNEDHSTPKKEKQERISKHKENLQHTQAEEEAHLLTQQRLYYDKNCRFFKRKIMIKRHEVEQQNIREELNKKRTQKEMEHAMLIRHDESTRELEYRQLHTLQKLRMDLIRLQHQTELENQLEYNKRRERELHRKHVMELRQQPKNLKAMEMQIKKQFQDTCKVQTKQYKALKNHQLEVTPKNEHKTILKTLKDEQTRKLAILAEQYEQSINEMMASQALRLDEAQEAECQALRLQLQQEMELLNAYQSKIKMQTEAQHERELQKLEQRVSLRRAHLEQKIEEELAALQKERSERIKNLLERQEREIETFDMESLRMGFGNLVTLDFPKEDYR

[8] = biological target: kinases (KINOMEscan panel) (Homo sapiens, UniProt Q9H4A3); details: NEW KINOMEscan
[9] = biological target: T3, kinases (KINOMEscan panel) (Homo sapiens, UniProt Q9NRM7); details: NEW KINOMEscan
T3 sequence (Q9NRM7 1-1088): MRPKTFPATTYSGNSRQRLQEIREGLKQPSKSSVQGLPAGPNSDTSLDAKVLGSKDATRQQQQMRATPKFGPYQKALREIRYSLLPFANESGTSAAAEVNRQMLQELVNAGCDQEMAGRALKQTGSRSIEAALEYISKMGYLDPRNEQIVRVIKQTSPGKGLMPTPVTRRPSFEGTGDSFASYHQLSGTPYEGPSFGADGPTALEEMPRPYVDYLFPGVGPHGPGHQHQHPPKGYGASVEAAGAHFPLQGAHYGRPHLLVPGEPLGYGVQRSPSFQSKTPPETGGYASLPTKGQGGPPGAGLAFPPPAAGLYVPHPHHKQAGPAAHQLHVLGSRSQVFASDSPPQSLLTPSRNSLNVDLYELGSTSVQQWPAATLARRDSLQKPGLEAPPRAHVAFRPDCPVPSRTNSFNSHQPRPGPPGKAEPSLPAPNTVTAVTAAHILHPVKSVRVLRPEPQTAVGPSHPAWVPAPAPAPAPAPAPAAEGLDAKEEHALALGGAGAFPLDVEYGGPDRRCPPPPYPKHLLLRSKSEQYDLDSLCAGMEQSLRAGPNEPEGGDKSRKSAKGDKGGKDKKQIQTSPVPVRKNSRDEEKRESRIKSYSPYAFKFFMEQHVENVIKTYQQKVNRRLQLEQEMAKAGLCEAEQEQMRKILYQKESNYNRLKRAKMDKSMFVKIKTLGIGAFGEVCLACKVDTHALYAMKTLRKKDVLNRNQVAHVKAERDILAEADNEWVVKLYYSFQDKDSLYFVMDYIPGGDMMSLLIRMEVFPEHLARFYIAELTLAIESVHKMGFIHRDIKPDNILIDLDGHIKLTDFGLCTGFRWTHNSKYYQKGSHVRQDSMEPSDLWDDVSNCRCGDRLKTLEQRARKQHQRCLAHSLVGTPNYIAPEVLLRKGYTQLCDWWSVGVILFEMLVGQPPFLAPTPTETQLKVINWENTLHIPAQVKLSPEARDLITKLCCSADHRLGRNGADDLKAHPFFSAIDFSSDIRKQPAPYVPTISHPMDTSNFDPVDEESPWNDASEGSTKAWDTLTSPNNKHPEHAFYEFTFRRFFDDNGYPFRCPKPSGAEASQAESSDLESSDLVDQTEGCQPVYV

[10] = biological target: kinases (KINOMEscan panel) (Homo sapiens, UniProt Q9NYY3); details: PLK2; NEW KINOMEscan
[11] = biological target: kinases (KINOMEscan panel) (Homo sapiens, UniProt Q9UM73, C1156Y); details: kinase ALK(C1156Y); NEW KINOMEscan
Chain of kinases (KINOMEscan panel) (Homo sapiens, UniProt Q9UM73, C1156Y) (Q9UM73 19-1620 C1156Y): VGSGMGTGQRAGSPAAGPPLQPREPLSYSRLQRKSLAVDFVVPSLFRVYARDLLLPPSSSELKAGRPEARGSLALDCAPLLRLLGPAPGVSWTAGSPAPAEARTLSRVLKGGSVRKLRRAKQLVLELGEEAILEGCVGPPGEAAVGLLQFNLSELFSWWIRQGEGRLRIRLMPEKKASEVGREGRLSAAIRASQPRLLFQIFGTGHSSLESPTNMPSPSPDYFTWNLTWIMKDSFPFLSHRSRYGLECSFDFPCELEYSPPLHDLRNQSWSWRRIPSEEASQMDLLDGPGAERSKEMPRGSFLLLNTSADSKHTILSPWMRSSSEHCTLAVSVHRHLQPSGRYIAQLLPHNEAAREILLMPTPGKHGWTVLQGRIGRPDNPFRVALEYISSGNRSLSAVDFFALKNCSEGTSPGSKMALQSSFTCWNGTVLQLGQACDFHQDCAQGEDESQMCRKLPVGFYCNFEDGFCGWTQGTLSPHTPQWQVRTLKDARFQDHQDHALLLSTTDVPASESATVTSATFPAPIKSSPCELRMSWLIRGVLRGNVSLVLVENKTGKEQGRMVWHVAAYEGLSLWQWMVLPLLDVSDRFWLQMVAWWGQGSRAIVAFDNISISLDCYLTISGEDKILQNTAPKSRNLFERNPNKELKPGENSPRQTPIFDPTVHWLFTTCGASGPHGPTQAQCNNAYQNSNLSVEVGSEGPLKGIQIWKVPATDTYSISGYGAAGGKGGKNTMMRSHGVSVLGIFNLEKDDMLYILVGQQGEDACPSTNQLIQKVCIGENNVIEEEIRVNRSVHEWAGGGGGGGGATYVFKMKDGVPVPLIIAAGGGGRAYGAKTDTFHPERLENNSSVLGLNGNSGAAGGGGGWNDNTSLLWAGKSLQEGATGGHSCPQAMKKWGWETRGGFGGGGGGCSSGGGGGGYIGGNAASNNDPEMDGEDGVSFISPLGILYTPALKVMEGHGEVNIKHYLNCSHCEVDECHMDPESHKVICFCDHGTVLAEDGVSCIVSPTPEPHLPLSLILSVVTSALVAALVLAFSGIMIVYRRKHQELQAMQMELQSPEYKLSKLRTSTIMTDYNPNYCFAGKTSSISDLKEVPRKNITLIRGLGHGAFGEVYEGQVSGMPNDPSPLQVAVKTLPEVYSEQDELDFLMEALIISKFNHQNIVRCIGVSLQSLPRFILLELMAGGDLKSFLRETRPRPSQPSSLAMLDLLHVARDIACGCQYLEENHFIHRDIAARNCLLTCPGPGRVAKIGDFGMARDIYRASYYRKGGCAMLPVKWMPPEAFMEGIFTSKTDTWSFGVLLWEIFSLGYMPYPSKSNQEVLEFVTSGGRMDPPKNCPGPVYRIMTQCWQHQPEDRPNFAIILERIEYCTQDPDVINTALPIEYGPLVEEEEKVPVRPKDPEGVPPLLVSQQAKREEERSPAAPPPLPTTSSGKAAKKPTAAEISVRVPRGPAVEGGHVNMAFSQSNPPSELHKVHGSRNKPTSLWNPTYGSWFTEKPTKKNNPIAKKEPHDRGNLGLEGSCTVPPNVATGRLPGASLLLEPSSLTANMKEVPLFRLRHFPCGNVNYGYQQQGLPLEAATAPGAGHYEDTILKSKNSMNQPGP

Chain of kinases (KINOMEscan panel) (Homo sapiens, UniProt Q06187) (Q06187 whole entry): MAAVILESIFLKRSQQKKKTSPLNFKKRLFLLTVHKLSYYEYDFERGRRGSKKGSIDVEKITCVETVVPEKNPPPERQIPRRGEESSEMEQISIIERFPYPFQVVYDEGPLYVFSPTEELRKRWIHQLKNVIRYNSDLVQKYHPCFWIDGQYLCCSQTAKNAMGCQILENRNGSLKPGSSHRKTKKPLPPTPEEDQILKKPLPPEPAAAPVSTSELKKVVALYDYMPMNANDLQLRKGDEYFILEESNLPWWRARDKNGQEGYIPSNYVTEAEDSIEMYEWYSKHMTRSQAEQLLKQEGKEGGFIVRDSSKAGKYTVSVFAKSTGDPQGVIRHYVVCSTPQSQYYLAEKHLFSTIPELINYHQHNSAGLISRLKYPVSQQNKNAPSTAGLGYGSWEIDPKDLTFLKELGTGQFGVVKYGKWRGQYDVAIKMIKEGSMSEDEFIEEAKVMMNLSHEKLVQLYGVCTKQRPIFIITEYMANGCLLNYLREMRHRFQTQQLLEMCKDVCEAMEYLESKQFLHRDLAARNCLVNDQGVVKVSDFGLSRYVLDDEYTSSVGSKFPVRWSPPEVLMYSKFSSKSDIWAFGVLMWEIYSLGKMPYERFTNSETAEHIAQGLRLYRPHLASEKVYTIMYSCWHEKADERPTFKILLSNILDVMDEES
Chain of kinases (KINOMEscan panel) (Homo sapiens, UniProt Q9NYY3) (Q9NYY3 whole entry): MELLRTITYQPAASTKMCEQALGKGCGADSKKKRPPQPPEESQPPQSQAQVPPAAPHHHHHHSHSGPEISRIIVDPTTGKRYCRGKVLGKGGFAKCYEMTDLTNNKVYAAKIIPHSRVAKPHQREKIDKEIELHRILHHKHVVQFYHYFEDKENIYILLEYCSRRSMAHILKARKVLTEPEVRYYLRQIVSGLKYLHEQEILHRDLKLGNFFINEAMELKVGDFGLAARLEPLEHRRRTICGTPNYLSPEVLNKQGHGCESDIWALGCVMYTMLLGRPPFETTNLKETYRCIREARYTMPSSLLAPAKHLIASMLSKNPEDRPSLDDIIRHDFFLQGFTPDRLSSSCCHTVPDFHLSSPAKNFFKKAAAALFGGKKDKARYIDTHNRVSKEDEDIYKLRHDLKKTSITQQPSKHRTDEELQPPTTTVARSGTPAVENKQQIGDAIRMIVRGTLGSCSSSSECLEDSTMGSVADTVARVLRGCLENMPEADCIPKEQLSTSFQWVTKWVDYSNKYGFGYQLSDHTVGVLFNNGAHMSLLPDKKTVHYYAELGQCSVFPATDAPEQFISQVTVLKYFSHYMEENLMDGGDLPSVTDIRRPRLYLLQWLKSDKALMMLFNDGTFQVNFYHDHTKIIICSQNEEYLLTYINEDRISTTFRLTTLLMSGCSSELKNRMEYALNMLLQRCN
Chain of kinases (KINOMEscan panel) (Homo sapiens, UniProt Q13177) (Q13177 whole entry): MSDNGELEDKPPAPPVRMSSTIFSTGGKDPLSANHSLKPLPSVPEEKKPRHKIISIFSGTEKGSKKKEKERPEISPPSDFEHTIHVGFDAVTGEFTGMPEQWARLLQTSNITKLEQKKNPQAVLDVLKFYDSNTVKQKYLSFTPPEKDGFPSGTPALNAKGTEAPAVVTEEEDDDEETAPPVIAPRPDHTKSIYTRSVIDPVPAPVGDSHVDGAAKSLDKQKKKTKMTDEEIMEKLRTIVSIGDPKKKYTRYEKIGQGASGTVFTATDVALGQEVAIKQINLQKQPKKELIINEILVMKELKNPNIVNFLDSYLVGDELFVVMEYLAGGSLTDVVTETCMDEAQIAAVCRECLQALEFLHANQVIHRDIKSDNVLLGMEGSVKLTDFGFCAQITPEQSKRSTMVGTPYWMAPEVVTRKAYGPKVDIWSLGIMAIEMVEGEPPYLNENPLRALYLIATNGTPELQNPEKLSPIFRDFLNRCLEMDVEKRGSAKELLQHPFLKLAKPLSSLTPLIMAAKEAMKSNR
Chain of kinases (KINOMEscan panel) (Homo sapiens, UniProt P31749) (P31749 whole entry): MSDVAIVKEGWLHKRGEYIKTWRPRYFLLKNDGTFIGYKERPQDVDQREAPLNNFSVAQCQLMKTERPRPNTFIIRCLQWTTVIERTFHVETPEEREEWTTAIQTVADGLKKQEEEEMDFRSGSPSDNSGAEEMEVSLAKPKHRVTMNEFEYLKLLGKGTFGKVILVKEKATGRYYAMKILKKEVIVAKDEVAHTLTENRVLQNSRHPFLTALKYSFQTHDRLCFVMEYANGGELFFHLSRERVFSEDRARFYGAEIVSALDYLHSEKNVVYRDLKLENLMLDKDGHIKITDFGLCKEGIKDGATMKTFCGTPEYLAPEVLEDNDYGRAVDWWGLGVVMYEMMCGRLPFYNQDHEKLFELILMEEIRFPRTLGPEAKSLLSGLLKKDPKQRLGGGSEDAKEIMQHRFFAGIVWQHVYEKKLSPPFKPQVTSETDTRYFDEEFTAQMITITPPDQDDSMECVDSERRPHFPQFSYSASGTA
Chain of kinases (KINOMEscan panel) (Homo sapiens, UniProt Q7KZI7) (Q7KZI7 whole entry): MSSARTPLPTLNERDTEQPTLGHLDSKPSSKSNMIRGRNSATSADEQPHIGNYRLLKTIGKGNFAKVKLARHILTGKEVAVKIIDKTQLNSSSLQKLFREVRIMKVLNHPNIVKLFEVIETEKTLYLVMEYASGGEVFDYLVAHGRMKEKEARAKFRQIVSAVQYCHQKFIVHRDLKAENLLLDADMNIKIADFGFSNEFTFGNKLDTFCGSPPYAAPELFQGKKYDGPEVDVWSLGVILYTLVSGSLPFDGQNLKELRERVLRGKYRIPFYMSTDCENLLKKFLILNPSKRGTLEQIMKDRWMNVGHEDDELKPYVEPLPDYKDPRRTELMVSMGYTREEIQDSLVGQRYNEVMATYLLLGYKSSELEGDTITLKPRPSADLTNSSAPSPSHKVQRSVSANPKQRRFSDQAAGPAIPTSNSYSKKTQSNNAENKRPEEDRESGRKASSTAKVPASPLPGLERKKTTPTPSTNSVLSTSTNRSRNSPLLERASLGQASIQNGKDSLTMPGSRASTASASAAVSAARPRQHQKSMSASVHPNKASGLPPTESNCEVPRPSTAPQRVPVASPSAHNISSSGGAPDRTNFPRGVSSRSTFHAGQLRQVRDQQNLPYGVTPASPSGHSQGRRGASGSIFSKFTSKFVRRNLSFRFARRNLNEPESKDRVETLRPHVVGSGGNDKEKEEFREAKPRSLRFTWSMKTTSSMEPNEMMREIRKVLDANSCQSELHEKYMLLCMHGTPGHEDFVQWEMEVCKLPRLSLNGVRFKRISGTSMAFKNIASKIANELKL

Cc1cccc(-c2nc(Nc3ccc4nn(C)cc4c3)c3ccccc3n2)n1 [NK167]
KINOMEscan AKT1 [1]: 10
KINOMEscan BTK [2]: 0
KINOMEscan PAK2 [3]: 0
KINOMEscan MARK2 [4]: 0
KINOMEscan CDKL3 [5]: 12
KINOMEscan TSSK3 [6]: 0
KINOMEscan TAOK3 [7]: 4
KINOMEscan WNK1 [8]: 0
KINOMEscan LATS2 [9]: 19
KINOMEscan PLK2 [10]: 0
KINOMEscan ALK(C1156Y) [11]: 11

Cc1cccc(-c2nc(N(C)c3ccc4ncsc4c3)c3ccccc3n2)n1 [NK-161]
KINOMEscan AKT1 [1]: 17
KINOMEscan BTK [2]: 10
KINOMEscan PAK2 [3]: 0
KINOMEscan MARK2 [4]: 0
KINOMEscan CDKL3 [5]: 0
KINOMEscan TSSK3 [6]: 6
KINOMEscan TAOK3 [7]: 13
KINOMEscan WNK1 [8]: 9
KINOMEscan LATS2 [9]: 26
KINOMEscan PLK2 [10]: 0
KINOMEscan ALK(C1156Y) [11]: 2
